According to the NIST ThermoML archive (doi:10.1016/j.jct.2004.03.005):
± gives the expanded uncertainty stated by the source.

What was measured:
[1] = molar heat capacity at constant pressure; conditions: 101.33 kPa, Small sample (50 mg) DSC
[2] = for Triple point temperature: Crystal 2, DTA; for vapor or sublimation pressure: Crystal, Calculated from knudsen effusion weight loss
[3] = Molar enthalpy of transition or fusion; conditions: Crystal 2; DSC

For `CC(C)c1nc2ccccc2[nH]1` [1H-benzimidazole, 2-(1-methylethyl)-], the “molar heat capacity at constant pressure” value ([1]; 268.15 K, Crystal 2) was 197 ± 3.9 J/K/mol, the “molar heat capacity at constant pressure” value ([1]; 270.15 K, Crystal 2) was 199 ± 4 J/K/mol and the “molar heat capacity at constant pressure” value ([1]; 275.15 K, Crystal 2) was 202.8 ± 4.1 J/K/mol. The “molar heat capacity at constant pressure” value ([1]; 280.15 K, Crystal 2) was 206.9 ± 4.1 J/K/mol, the “molar heat capacity at constant pressure” value ([1]; 285.15 K, Crystal 2) was 210.8 ± 4.2 J/K/mol and the “molar heat capacity at constant pressure” value ([1]; 290.15 K, Crystal 2) was 214.4 ± 4.3 J/K/mol. For the same compound, the “molar heat capacity at constant pressure” value ([1]; 295.15 K, Crystal 2) was 218.7 ± 4.4 J/K/mol, the “molar heat capacity at constant pressure” value ([1]; 298.15 K, Crystal 2) was 220.6 ± 4.4 J/K/mol and the “molar heat capacity at constant pressure” value ([1]; 300.15 K, Crystal 2) was 221.7 ± 4.4 J/K/mol. For the same compound, the “molar heat capacity at constant pressure” value ([1]; 305.15 K, Crystal 2) was 224.5 ± 4.5 J/K/mol, the “molar heat capacity at constant pressure” value ([1]; 310.15 K, Crystal 2) was 228 ± 4.6 J/K/mol and the “molar heat capacity at constant pressure” value ([1]; 315.15 K, Crystal 2) was 230.9 ± 4.6 J/K/mol. For the same compound, the “molar heat capacity at constant pressure” value ([1]; 320.15 K, Crystal 2) was 234.6 ± 4.7 J/K/mol, the “molar heat capacity at constant pressure” value ([1]; 325.15 K, Crystal 2) was 238 ± 4.8 J/K/mol and the “molar heat capacity at constant pressure” value ([1]; 330.15 K, Crystal 2) was 240.7 ± 4.8 J/K/mol. The “molar heat capacity at constant pressure” value ([1]; 335.15 K, Crystal 2) was 245.2 ± 4.9 J/K/mol, the “molar heat capacity at constant pressure” value ([1]; 340.15 K, Crystal 2) was 248.9 ± 5 J/K/mol and the “molar heat capacity at constant pressure” value ([1]; 345.15 K, Crystal 2) was 252.7 ± 5 J/K/mol. For the same compound, the “molar heat capacity at constant pressure” value ([1]; 350.15 K, Crystal 2) was 256 ± 5.1 J/K/mol, the “molar heat capacity at constant pressure” value ([1]; 355.15 K, Crystal 2) was 260 ± 5.2 J/K/mol and the “molar heat capacity at constant pressure” value ([1]; 360.15 K, Crystal 2) was 264 ± 5.3 J/K/mol. For the same compound, the “molar heat capacity at constant pressure” value ([1]; 365.15 K, Crystal 2) was 267.4 ± 5.3 J/K/mol, the “molar heat capacity at constant pressure” value ([1]; 370.15 K, Crystal 2) was 272 ± 5.4 J/K/mol and the “molar heat capacity at constant pressure” value ([1]; 375.15 K, Crystal 2) was 276.3 ± 5.5 J/K/mol. For the same compound, the “molar heat capacity at constant pressure” value ([1]; 380.15 K, Crystal 2) was 280.1 ± 5.6 J/K/mol, the “molar heat capacity at constant pressure” value ([1]; 385.15 K, Crystal 2) was 284.6 ± 5.7 J/K/mol and the “molar heat capacity at constant pressure” value ([1]; 425.15 K, Crystal 1) was 285.7 ± 5.7 J/K/mol. The “molar heat capacity at constant pressure” value ([1]; 430.15 K, Crystal 1) was 288.4 ± 5.8 J/K/mol, the “molar heat capacity at constant pressure” value ([1]; 435.15 K, Crystal 1) was 292.2 ± 5.8 J/K/mol and the “molar heat capacity at constant pressure” value ([1]; 440.15 K, Crystal 1) was 298.2 ± 6 J/K/mol. The “molar heat capacity at constant pressure” value ([1]; 445.15 K, Crystal 1) was 301.3 ± 6 J/K/mol, the “molar heat capacity at constant pressure” value ([1]; 450.15 K, Crystal 1) was 308.5 ± 6.2 J/K/mol and the “molar heat capacity at constant pressure” value ([1]; 455.15 K, Crystal 1) was 310.9 ± 6.2 J/K/mol. The “molar heat capacity at constant pressure” value ([1]; 460.15 K, Crystal 1) was 314.8 ± 6.3 J/K/mol, the “molar heat capacity at constant pressure” value ([1]; 463.15 K, Crystal 1) was 316.2 ± 6.3 J/K/mol and the Triple point temperature [2] was 410.4 ± 0.4 K. The “Molar enthalpy of transition or fusion” value [3] was 0.239 ± 0.0478 kcal/mol.

In the case of `CCCc1nc2ccccc2[nH]1` [1H-benzimidazole, 2-propyl-], the “molar heat capacity at constant pressure” value ([1]; 268.15 K, Crystal 2) is reported as 190.5 ± 3.8 J/K/mol, the “molar heat capacity at constant pressure” value ([1]; 270.15 K, Crystal 2) is reported as 192.6 ± 3.9 J/K/mol and the “molar heat capacity at constant pressure” value ([1]; 275.15 K, Crystal 2) is reported as 197.1 ± 3.9 J/K/mol. For the same compound, the “molar heat capacity at constant pressure” value ([1]; 280.15 K, Crystal 2) was 201.5 ± 4 J/K/mol, the “molar heat capacity at constant pressure” value ([1]; 285.15 K, Crystal 2) was 206.1 ± 4.1 J/K/mol and the “molar heat capacity at constant pressure” value ([1]; 290.15 K, Crystal 2) was 210.1 ± 4.2 J/K/mol. For the same compound, the “molar heat capacity at constant pressure” value ([1]; 295.15 K, Crystal 2) was 214.4 ± 4.3 J/K/mol, the “molar heat capacity at constant pressure” value ([1]; 298.15 K, Crystal 2) was 217.1 ± 4.3 J/K/mol and the “molar heat capacity at constant pressure” value ([1]; 300.15 K, Crystal 2) was 218.7 ± 4.4 J/K/mol. For the same compound, the “molar heat capacity at constant pressure” value ([1]; 305.15 K, Crystal 2) was 223.2 ± 4.5 J/K/mol, the “molar heat capacity at constant pressure” value ([1]; 310.15 K, Crystal 2) was 228.3 ± 4.6 J/K/mol and the “molar heat capacity at constant pressure” value ([1]; 315.15 K, Crystal 2) was 234 ± 4.7 J/K/mol. For the same compound, the “molar heat capacity at constant pressure” value ([1]; 320.15 K, Crystal 2) was 239.7 ± 4.8 J/K/mol, the “molar heat capacity at constant pressure” value ([1]; 325.15 K, Crystal 2) was 245.7 ± 4.9 J/K/mol and the “molar heat capacity at constant pressure” value ([1]; 330.15 K, Crystal 2) was 252.2 ± 5 J/K/mol. For the same compound, the “molar heat capacity at constant pressure” value ([1]; 335.15 K, Crystal 2) was 258.6 ± 5.2 J/K/mol, the “molar heat capacity at constant pressure” value ([1]; 340.15 K, Crystal 2) was 263.7 ± 5.3 J/K/mol and the “molar heat capacity at constant pressure” value ([1]; 345.15 K, Crystal 2) was 268.3 ± 5.4 J/K/mol. The “molar heat capacity at constant pressure” value ([1]; 350.15 K, Crystal 2) was 274.9 ± 5.5 J/K/mol, the “molar heat capacity at constant pressure” value ([1]; 355.15 K, Crystal 2) was 282.4 ± 5.7 J/K/mol and the “molar heat capacity at constant pressure” value ([1]; 360.15 K, Crystal 2) was 292.6 ± 5.8 J/K/mol. The “molar heat capacity at constant pressure” value ([1]; 365.15 K, Crystal 2) was 306.3 ± 6.1 J/K/mol, the “molar heat capacity at constant pressure” value ([1]; 400.15 K, Crystal 1) was 280.1 ± 5.6 J/K/mol and the “molar heat capacity at constant pressure” value ([1]; 405.15 K, Crystal 1) was 285.2 ± 5.7 J/K/mol. The “molar heat capacity at constant pressure” value ([1]; 410.15 K, Crystal 1) was 290.7 ± 5.8 J/K/mol, the “molar heat capacity at constant pressure” value ([1]; 415.15 K, Crystal 1) was 297.5 ± 6 J/K/mol and the “molar heat capacity at constant pressure” value ([1]; 420.15 K, Crystal 1) was 306.5 ± 6.1 J/K/mol. The “vapor or sublimation pressure” value ([2]; 344.53 K) was 4.28e-05 ± 2.2e-06 kPa, the “vapor or sublimation pressure” value ([2]; 352.14 K) was 9.52e-05 ± 4.8e-06 kPa and the “vapor or sublimation pressure” value ([2]; 355.33 K) was 0.000131 ± 7e-06 kPa. The “vapor or sublimation pressure” value ([2]; 362.01 K) was 0.000266 ± 1.3e-05 kPa, the “vapor or sublimation pressure” value ([2]; 364.33 K) was 0.000324 ± 1.6e-05 kPa and the Triple point temperature [2] was 385.8 ± 0.5 K. The “Molar enthalpy of transition or fusion” value [3] was 0.359 ± 0.0478 kcal/mol.
